{
  "source": "patent US20050064023A1",
  "about": "“Compound” (priority 2001, published 2005)",
  "origin": "cited, not measured here",
  "details": "in combination with DOPE",
  "data": [
    {"molecule": "1,2-dioleyl-sn-glycero-3-succinyl-2-hydroxyethyl-disulfide omithine [DOGSDSO]", "values": [
      {"measurement": "enhancement compared to the non-disulfide analogs", "value": "up to 50 times"}
    ]},
    {"molecule": "CC(C)CCC[C@@H](C)[C@H]1CC[C@H]2[C@@H]3CC=C4C[C@@H](OC(=O)CSSCC(=O)NCCN(CCN)CCN)CC[C@]4(C)[C@H]3CC[C@]12C", "note": "[CHDTAEA, cholesteryl-hemi-dithio-diglycolyl-tris(aminoethyl)-amine]", "values": [
      {"measurement": "cellular toxicity compared to DC-Chol liposomes", "value": "decrease of cellular toxicity"},
      {"measurement": "transfection efficiency compared to DC-Chol liposomes", "value": "increase of transfection efficiency"}
    ]}
  ]
}
